Patent EP4729516A1, “S[…] DERIVATIVE, INTERMEDIATE, PREPARATION METHOD THEREFOR AND USE THEREOF” (Jiangsu NHWA Pharmaceutical Co., Ltd, priority 2023, dated 2024)
Where a name gives a salt, the structure may show the parent alone. Read-outs that look alike come from different tables or passages of the source.

How the values were obtained:
[1] = molecular target: T1, α2B adrenoceptor (Homo sapiens, UniProt P18089); assay: Agonist screening mode IP-One assay, CHO-α2B/Gα15 cells; assay type: cell-based
T1 construct: host or cells: CHO
T1 sequence (P18089 1-450): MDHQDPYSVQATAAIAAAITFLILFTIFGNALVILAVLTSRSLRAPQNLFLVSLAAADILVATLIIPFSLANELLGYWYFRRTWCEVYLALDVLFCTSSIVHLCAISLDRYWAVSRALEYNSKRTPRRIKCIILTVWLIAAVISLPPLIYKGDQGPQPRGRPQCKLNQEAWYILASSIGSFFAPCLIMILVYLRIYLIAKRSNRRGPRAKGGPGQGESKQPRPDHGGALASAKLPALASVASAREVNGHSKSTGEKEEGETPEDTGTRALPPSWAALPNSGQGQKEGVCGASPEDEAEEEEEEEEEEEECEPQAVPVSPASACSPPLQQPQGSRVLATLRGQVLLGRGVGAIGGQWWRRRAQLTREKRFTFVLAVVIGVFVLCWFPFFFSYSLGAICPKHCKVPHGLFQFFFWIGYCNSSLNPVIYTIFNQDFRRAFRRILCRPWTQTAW
Experimental: (§1) The cells were centrifuged at 1000 rpm for 5 min, and the supernatant was discarded. 3 mL of PBS was added, and the mixture was gently pipetted to be mixed well. The cells were centrifuged again at 1000 rpm for 5 min, and the supernatant was discarded. […] After shaking, the assay plates were left to stand at room temperature for 60 min. • (8) Experimental readings: The plate was read on Envision, readings from the 665 nm and 615 nm channels were taken, and the ratio of 665 nm/615 nm readings was calculated.

[2] = molecular target: T2, α1A receptor (Homo sapiens, UniProt P35348); assay: Competitive receptor binding assay, α1A (3H-Prazosin, CHO-K1-α1A membranes)
T2 construct: expressed in transfected cells; host or cells: CHO-K1
T2 sequence (P35348 1-466): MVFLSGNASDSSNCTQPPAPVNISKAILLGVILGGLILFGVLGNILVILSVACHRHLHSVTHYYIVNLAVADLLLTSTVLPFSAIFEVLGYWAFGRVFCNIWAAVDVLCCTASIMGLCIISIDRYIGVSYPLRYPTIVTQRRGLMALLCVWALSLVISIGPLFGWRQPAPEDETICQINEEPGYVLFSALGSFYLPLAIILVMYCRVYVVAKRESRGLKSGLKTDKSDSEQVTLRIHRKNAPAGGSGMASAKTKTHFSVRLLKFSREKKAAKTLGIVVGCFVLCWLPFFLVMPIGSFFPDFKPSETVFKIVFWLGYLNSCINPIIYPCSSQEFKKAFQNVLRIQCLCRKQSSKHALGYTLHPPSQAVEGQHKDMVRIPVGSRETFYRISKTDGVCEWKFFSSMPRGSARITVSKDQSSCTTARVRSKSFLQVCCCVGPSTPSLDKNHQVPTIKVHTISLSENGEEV
Experimental: (§2) Test sample (compound): The theoretical sample weighing amount was calculated according to the designed concentration and the required volume. Generally, the test sample was dissolved in DMSO to an initial preparation dose of 5.0 × 10^-3 M, and the solution was sequentially diluted with DMSO to 5.0 × 10^-4 M-5.0 × 10^-9 M; the diluted DMSO solution was diluted with Buffer to a working concentration of 5.0 × 10^-5 M-5.0 × 10^-11 M; and the final concentration of DMSO in the working solution was 1% (the final concentration of DMSO in the reaction system was 0.2%). The test sample was prepared and then stored at 4 °C. After the test was completed, the test sample was discarded.
(§3) CHO-K1-α1A, CHO-K1-α2A, CHO-K1-α2B, and CHO-K1-α2C cells were taken out of a refrigerator at -80 °C, thawed naturally, and centrifuged at 2000 g at 4 °C for 10 min. The supernatant was discarded, and the pellet was collected. […] The supernatant was discarded, and the buffer was added again. […] The supernatant was discarded, and the pellet was collected and stored at -80 °C.
(§4) Table 1. Experimental conditions for radioactive binding
(§5) Step 1: 50 µL of a vehicle (1% DMSO) was added to a total binding tube (TB), 50 µL of a non-labeled substance (with a final concentration of 1.0 × 10^-5 M) was added to a non-specific binding tube (NB), and 50 µL of a test compound was added to each test compound tube (CB).
(§6) Step 2: 100 µL of a buffer was added to each reaction tube.
(§7) Step 3: The prepared membrane was suspended in a buffer to give a membrane suspension with a corresponding concentration for later use.
(§8) Step 4: 50 µL of the corresponding radioligand was added to each reaction tube.
(§9) Step 5: 50 µL of the membrane suspension was added to each reaction tube.
(§10) Step 6: Each reaction tube was incubated according to the incubation conditions. After the reaction was completed, the binding ligands were rapidly filtered under reduced pressure. The UniFilter GF/C plate was saturated with a 0.5% PEI solution 1 h in advance, fully washed with an ice-cold Tris-HCl buffer, filtered under vacuum, then placed into a thermostatic dryer, and dried for 30 min. The filter plate was taken out, and a MICROSCINT PS scintillation solution was added at 40 µL/well.
(§11) Step 7: The scintillation vial was put into a liquid scintillation counter for counting.
(§12) Based on the effect values of the compound samples at different concentration test points, the GraphPad Prism software was used to fit the action curves of the compound samples to the receptors, and the Ki values were calculated.

[3] = molecular target: T3, α1A adrenoceptor (Homo sapiens, UniProt P35348); assay: Agonist screening mode IP-One assay, 293-α1A cells; assay type: cell-based
T3 construct: host or cells: 293
T3 sequence (P35348 1-466): T2 sequence (P35348 1-466)
Experimental: as §1

[4] = molecular target: T4, α2C receptor (Homo sapiens, UniProt P18825); assay: Competitive receptor binding assay, α2C (3H-RX821002, CHO-K1-α2C membranes)
T4 construct: expressed in transfected cells; host or cells: CHO-K1
T4 sequence (P18825 1-462): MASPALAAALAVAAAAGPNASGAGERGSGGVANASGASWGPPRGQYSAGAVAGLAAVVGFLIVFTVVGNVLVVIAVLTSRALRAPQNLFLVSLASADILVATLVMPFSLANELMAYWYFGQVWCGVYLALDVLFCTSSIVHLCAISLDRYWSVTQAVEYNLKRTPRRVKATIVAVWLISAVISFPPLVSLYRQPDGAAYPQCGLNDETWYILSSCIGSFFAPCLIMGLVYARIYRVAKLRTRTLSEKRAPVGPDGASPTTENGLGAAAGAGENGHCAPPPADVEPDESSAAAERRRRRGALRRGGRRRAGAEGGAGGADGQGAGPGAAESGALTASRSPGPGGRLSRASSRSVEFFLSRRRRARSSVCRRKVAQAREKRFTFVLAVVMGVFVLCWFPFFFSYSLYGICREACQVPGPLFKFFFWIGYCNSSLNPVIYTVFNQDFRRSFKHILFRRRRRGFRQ
Experimental: as §2, §3, §4, §5, §6, §7, §8, §9, §10, §11, §12

[5] = molecular target: T5, α2B receptor (Homo sapiens, UniProt P18089); assay: Competitive receptor binding assay, α2B (3H-RX821002, CHO-K1-α2B membranes)
T5 construct: expressed in transfected cells; host or cells: CHO-K1
T5 sequence (P18089 1-450): T1 sequence (P18089 1-450)
Experimental: as §2, §3, §4, §5, §6, §7, §8, §9, §10, §11, §12

[6] = molecular target: T6, α2C adrenoceptor (Homo sapiens, UniProt P18825); assay: Agonist screening mode IP-One assay, CHO-α2C/Gα15 cells; assay type: cell-based
T6 construct: host or cells: CHO
T6 sequence (P18825 1-462): T4 sequence (P18825 1-462)
Experimental: as §1

[7] = Ki, CHO-K1-α1A membranes, 3H-Prazosin, read-out: Binding α1A
[8] = Ki, CHO-K1-α2C membranes, 3H-RX821002, read-out: Binding α2C
[9] = Ki, CHO-K1-α2B membranes, 3H-RX821002, read-out: Binding α2B

Row | Structure (SMILES) | EC50 [1] | Ki [2] | EC50 [3] | Ki [4] | Ki [5] | EC50 [6] | Ki [2, 7] | Ki [4, 8] | Ki [5, 9]
1 | C[C@H](c1c[nH]cn1)c1cccc2c1CCC2 [Compound 31-b, (S)-4-[1-(2,3-dihydro-1H-inden-4-yl)ethyl]-1H-imidazole] | 1.08 nM | 424 nM | 7.94 nM | 10.8 nM | 32.9 nM | 1.78 nM |  |  | 
2 | Cc1cccc([C@H](C)c2cnc[nH]2)c1C [Dexmedetomidine hydrochloride, reference compound] | 0.96 nM |  | 9.55 nM |  |  | 2.05 nM | 593 nM | 7.34 nM | 3.66 nM
3 | CC(c1c[nH]cn1)c1cccc2c1OCC2 (stereo not drawn) [Compound 10, 4-[1-(2,3-Dihydrobenzofuran-7-yl)ethyl]-1H-imidazole] | 1.66 nM | 766 nM | 24.1 nM | 6.44 nM | 6.05 nM | 3.99 nM |  |  | 
4 | c1cc2c(c(Cc3c[nH]cn3)c1)SCCC2 [Compound 1, 4-[1-(Thiochroman-8-yl)methyl]-1H-imidazole] | 4.09 nM |  | 3.16 nM |  |  | 15.3 nM | 67.9 nM | 29.3 nM | 59.1 nM
5 | CC(c1c[nH]cn1)c1cccc2c1SCCC2 (stereo not drawn) [Compound 2, 4-(1-[Thiochroman-8-yl)ethyl]-1H-imidazole] | 3.03 nM |  | 5.32 nM |  |  | 18.4 nM | 91.2 nM | 13.8 nM | 11.7 nM
6 | CC(c1c[nH]cn1)c1cccc2c1CCCC2 (stereo not drawn) [Compound 4, 4-(1-(5,6,7,8-Tetrahydronaphthalen-1-yl)ethyl)-1H-imidazole] | 54.4 nM | 2050 nM | 25.1 nM | 46.1 nM | 64.6 nM | 278 nM |  |  | 
7 | CC(c1c[nH]cn1)c1cccc2c1C=CC2(C)C (stereo not drawn) [Compound 17, 4-[1-(1,1-Dimethyl-1H-inden-4-yl)ethyl]-1H-imidazole] | 6.59 nM | > 10000 nM | 104 nM | 594 nM | 244 nM | 134 nM |  |  | 
8 | CC(c1c[nH]cn1)c1cccc2c1CC2 (stereo not drawn) [Compound 3, 4-(1-(Bicyclo[4.2.0]octa-1(6),2,4-trien-2-yl)ethyl)-1H-imidazole] | 5.51 nM | 1130 nM | 57 nM | 26.1 nM | 62.3 nM | 191 nM |  |  | 
9 | CC(c1c[nH]cn1)c1cccc2c1C=CC2 (stereo not drawn) [Compound 8, 4-[1-(1H-Inden-4-yl)ethyl]-1H-imidazole] | 17.7 nM | 1130 nM | 21.8 nM | 18.9 nM | 37.7 nM | 9.89 nM |  |  | 
10 | C[C@H](c1c[nH]cn1)c1cc(F)cc2c1C=CC2 [Compound 11-b, 4-[(1S)-1-(6-fluoro-1H-inden-4-yl)ethyl]-1H-imidazole] | 2.55 nM | 671 nM | 36.8 nM | 23.8 nM | 54.8 nM | 0.87 nM |  |  | 
11 | C[C@H](c1c[nH]cn1)c1cc(F)cc2c1C(=O)CC2 [Compound 38-b, (S)-7-(1-(1H-imidazol-4-yl)ethyl)-5-fluoro-2,3-dihydro-1H-inden-1-one] | 3.84 nM |  | 9.75 nM |  |  | 2.21 nM | 3160 nM | 36.4 nM | 49.1 nM
12 | CC1Cc2cccc(C(C)c3c[nH]cn3)c2O1 (stereo not drawn) [Compound 32, 4-[1-(2-Methyl-2,3-dihydrobenzofuran-7-yl)ethyl]-1H-imidazole] | 2.23 nM | 137 nM | 4.73 nM | 26.1 nM | 28.1 nM | 8.13 nM |  |  | 
